Converted amounts (≈) assume the structure as drawn.
Legend:
[1] = system: M. suipneumoniae JF 435; test: Anti-mycoplasmal activity, MIC in Friis broth agarose; assay type: cell-based; details: Mesomycoplasma hyopneumoniae, JF435, 144 h, Friis broth solidified with 0.9% agarose, 6 days incubation at 37°C, read-out: MIC
[2] = system: M. suipneumoniae HK(2); test: as above; assay type: cell-based; details: Mesomycoplasma hyopneumoniae, 144 h, Friis broth solidified with 0.9% agarose, 6 days incubation at 37°C, read-out: MIC
[3] = system: M. suipneumoniae Str. 11; test: as above; assay type: cell-based; details: Mesomycoplasma hyopneumoniae, 144 h, Friis broth solidified with 0.9% agarose, 6 days incubation at 37°C, read-out: MIC
[4] = system: M. suipneumoniae MS16; test: as above; assay type: cell-based; details: Mesomycoplasma hyopneumoniae, 144 h, Friis broth solidified with 0.9% agarose, 6 days incubation at 37°C, read-out: MIC
[5] = system: M. suipneumoniae UCD 1; test: as above; assay type: cell-based; details: Mesomycoplasma hyopneumoniae, UCD1, 144 h, Friis broth solidified with 0.9% agarose, 6 days incubation at 37°C, read-out: MIC
[6] = system: M. suipneumoniae TAM 6N; test: as above; assay type: cell-based; details: Mesomycoplasma hyopneumoniae, TAM6N, 144 h, Friis broth solidified with 0.9% agarose, 6 days incubation at 37°C, read-out: MIC
[7] = system: M. hyorhinis ATCC 23234; test: as above; assay type: cell-based; details: Mesomycoplasma hyorhinis, ATCC23234, 144 h, Friis broth solidified with 0.9% agarose, 6 days incubation at 37°C, read-out: MIC
[8] = system: M. hyosynoviae ATCC 25591; test: as above; assay type: cell-based; details: 144 h, Friis broth solidified with 0.9% agarose, 6 days incubation at 37°C, read-out: MIC
[9] = system: M. bovis NCTC 10131; test: microbe, parasite or virus in culture; assay type: cell-based; details: NCTC10131, 144 h
[10] = system: M. dispar NCTC 10125; test: Anti-mycoplasmal activity, MIC in Friis broth agarose; assay type: cell-based; details: 144 h, Friis broth solidified with 0.9% agarose, 6 days incubation at 37°C, read-out: MIC
[11] = system: M. gallisepticum S6; test: as above; assay type: cell-based; details: Mycoplasmoides gallisepticum, 144 h, Friis broth solidified with 0.9% agarose, 6 days incubation at 37°C, read-out: MIC
[12] = system: M. pneumoniae ATCC 15492; test: as above; assay type: cell-based; details: Mycoplasmoides pneumoniae, ATCC15492, 144 h, Friis broth solidified with 0.9% agarose, 6 days incubation at 37°C, read-out: MIC
[13] = system: E. coli ESS; test: Human bacteria, MIC by serial dilution in nutrient agar; assay type: cell-based; details: Escherichia coli, nutrient agar with 5% chocolated horse blood, 18 hours at 37°C, read-out: MIC
[14] = system: P. mirabilis 889; test: as above; assay type: cell-based; details: Proteus mirabilis, nutrient agar with 5% chocolated horse blood, 18 hours at 37°C, read-out: MIC
[15] = system: K. aerogenes A; test: as above; assay type: cell-based; details: Klebsiella aerogenes, nutrient agar with 5% chocolated horse blood, 18 hours at 37°C, read-out: MIC
[16] = system: Ps. aeruginosa 10662; test: as above; assay type: cell-based; details: Pseudomonas aeruginosa, nutrient agar with 5% chocolated horse blood, 18 hours at 37°C, read-out: MIC
[17] = system: Pasteurella multocida 1633; test: as above; assay type: cell-based; details: nutrient agar with 5% chocolated horse blood, 18 hours at 37°C, read-out: MIC
[18] = system: Haemophilus influenzae Q1; test: as above; assay type: cell-based; details: nutrient agar with 5% chocolated horse blood, 18 hours at 37°C, read-out: MIC
[19] = system: Haemophilus influenzae Wy21; test: as above; assay type: cell-based; details: nutrient agar with 5% chocolated horse blood, 18 hours at 37°C, read-out: MIC
[20] = system: Neisseria catarrhalis 1502; test: as above; assay type: cell-based; details: nutrient agar with 5% chocolated horse blood, 18 hours at 37°C, read-out: MIC
[21] = system: Bacillus subtilis 6633; test: as above; assay type: cell-based; details: nutrient agar with 5% chocolated horse blood, 18 hours at 37°C, read-out: MIC
[22] = system: Corynebacterium xerosis 9755; test: as above; assay type: cell-based; details: nutrient agar with 5% chocolated horse blood, 18 hours at 37°C, read-out: MIC
[23] = system: Sarcina lutea 8340; test: as above; assay type: cell-based; details: Micrococcus luteus, nutrient agar with 5% chocolated horse blood, 18 hours at 37°C, read-out: MIC
[24] = system: Staph. aureus Russell; test: as above; assay type: cell-based; details: Staphylococcus aureus, nutrient agar with 5% chocolated horse blood, 18 hours at 37°C, read-out: MIC
[25] = system: Strep. faecalis I; test: as above; assay type: cell-based; details: Enterococcus faecalis, nutrient agar with 5% chocolated horse blood, 18 hours at 37°C, read-out: MIC
[26] = system: Strep. pyogenes R80/421-A; test: as above; assay type: cell-based; details: Streptococcus pyogenes, nutrient agar with 5% chocolated horse blood, 18 hours at 37°C, read-out: MIC
[27] = system: Strep. agalactiae 2788-B; test: as above; assay type: cell-based; details: Streptococcus agalactiae, nutrient agar with 5% chocolated horse blood, 18 hours at 37°C, read-out: MIC
[28] = system: Strep. spp. 64/848-C; test: as above; assay type: cell-based; details: nutrient agar with 5% chocolated horse blood, 18 hours at 37°C, read-out: MIC
[29] = system: Strep. pneumoniae CN33; test: as above; assay type: cell-based; details: Streptococcus pneumoniae, nutrient agar with 5% chocolated horse blood, 18 hours at 37°C, read-out: MIC
[30] = system: E. coli NCTC 10418; test: Veterinary bacteria, MIC by two fold serial dilution in agar; details: Escherichia coli, NCTC10418, 18 h
Experimental: (§1) The activity of the compounds of the Examples against various organisms important in veterinary infections was determined using two fold serial dilutions in Diagnostic Sensitivity Test Agar inoculated with 10^4 organisms.

[31] = system: E. coli E1; test: as above; details: Escherichia coli, E1, 18 h
Experimental: as §1

[32] = system: S. dublin S7; test: as above; details: Salmonella enterica, S7, 18 h
Experimental: as §1

[33] = system: Bord. bronchiseptica B08; test: as above; details: Bordetella bronchiseptica, B08, 18 h
Experimental: as §1

[34] = system: Past. multocida PA1; test: as above; details: Pasteurella multocida, PA1, 18 h
Experimental: as §1

[35] = system: Past. multocida PA2; test: as above; details: Pasteurella multocida, PA2, 18 h
Experimental: as §1

[36] = system: Erysipelothrix rhusiopathiae NCTC 8163; test: as above; details: Erysipelothrix rhusiopathiae, NCTC8163, 18 h
Experimental: as §1

[37] = system: Corynebacterium pyogenes CY1; test: as above; details: CY1, 18 h
Experimental: as §1

[38] = system: Staph. aureus B4 (pen. resistant); test: as above; details: Staphylococcus aureus, 18 h
Experimental: as §1

[39] = system: Staph. aureus 152 (pen. sens.); test: as above; details: Staphylococcus aureus, 18 h
Experimental: as §1

[40] = system: Strep. uberis SPU1; test: as above; details: Streptococcus uberis, SPU1, 18 h
Experimental: as §1

[41] = system: Strep. dysgalactiae SPD1; test: as above; details: Streptococcus dysgalactiae, SPD1, 18 h
Experimental: as §1

CSc1ccc(COC(=O)C=C(C)CC2OCC(CC3OC3C(C)C(C)O)C(O)C2O)cc1 (centres unmarked) [Example 1, p-Methylthiobenzyl monate A]
MIC [1]: 0.5 µg/mL (≈ 1.04 µM)
MIC [2]: 0.5 µg/mL (≈ 1.04 µM)
MIC [3]: 0.25 µg/mL (≈ 0.52 µM)
MIC [4]: 0.25 µg/mL (≈ 0.52 µM)
MIC [5]: 0.5 µg/mL (≈ 1.04 µM)
MIC [6]: 0.5 µg/mL (≈ 1.04 µM)
MIC [7]: 0.25 µg/mL (≈ 0.52 µM)
MIC [8]: 0.05 µg/mL (≈ 0.104 µM)
MIC [9]: ≤ 0.01 µg/mL
MIC [10]: 0.1 µg/mL (≈ 0.208 µM)
MIC [11]: 2.5 µg/mL (≈ 5.2 µM)
MIC [12]: 1 µg/mL (≈ 2.08 µM)
MIC [13]: 1 µg/mL (≈ 2.08 µM)
MIC [14]: 100 µg/mL (≈ 208 µM)
MIC [15]: > 100 µg/mL
MIC [16]: > 100 µg/mL
MIC [17]: 1 µg/mL (≈ 2.08 µM)
MIC [18]: 0.25 µg/mL (≈ 0.52 µM)
MIC [19]: 0.25 µg/mL (≈ 0.52 µM)
MIC [20]: 0.25 µg/mL (≈ 0.52 µM)
MIC [21]: 0.25 µg/mL (≈ 0.52 µM)
MIC [22]: > 100 µg/mL
MIC [23]: > 100 µg/mL
MIC [24]: 0.5 µg/mL (≈ 1.04 µM)
MIC [25]: 100 µg/mL (≈ 208 µM)
MIC [26]: 0.1 µg/mL (≈ 0.208 µM)
MIC [27]: 1 µg/mL (≈ 2.08 µM)
MIC [28]: 0.5 µg/mL (≈ 1.04 µM)
MIC [29]: 0.5 µg/mL (≈ 1.04 µM)
MIC [30]: > 80 µg/mL
MIC [31]: > 80 µg/mL
MIC [32]: > 80 µg/mL
MIC [33]: 20 µg/mL (≈ 41.6 µM)
MIC [34]: 0.156 µg/mL (≈ 0.325 µM)
MIC [35]: 0.156 µg/mL (≈ 0.325 µM)
MIC [36]: 10 µg/mL (≈ 20.8 µM)
MIC [37]: > 80 µg/mL
MIC [38]: 0.156 µg/mL (≈ 0.325 µM)
MIC [39]: 0.156 µg/mL (≈ 0.325 µM)
MIC [40]: 0.039 µg/mL (≈ 0.0811 µM)
MIC [41]: 0.156 µg/mL (≈ 0.325 µM)

Source: patent publication EP0093484A2, “Antibacterial monic acid derivatives” (BEECHAM GROUP PLC, priority 1982, dated 1983)
